According to patent publication US20180042943A1, “METHODS FOR MODULATING BONE DENSITY” (Intercept Pharmaceuticals, Inc., priority 2015, published 2018):
“Also recorded” adds a separate entry of the source.

Columns and labels:
[1] = DEXA scan of the femoral neck (T-score, Z-score, BMD) in PBC subjects, 12 months OCA or placebo; type: in vivo, human; details: for Femoral Neck Scan: Bone Mineral Density, Change From Baseline, Mean / Femoral Neck Scan: Bone Mineral Density, Change From Baseline, Median / Femoral Neck Scan: Bone Mineral Density, Result, Mean / Femoral Neck Scan: Bone Mineral Density, Result, Median / Femoral Neck Scan: T-Score, Change From Baseline, Mean / Femoral Neck Scan: T-Score, Change From Baseline, Median / Femoral Neck Scan: T-Score, Result, Mean / Femoral Neck Scan: T-Score, Result, Median / Femoral Neck Scan: Z-Score, Change From Baseline, Mean / Femoral Neck Scan: Z-Score, Change From Baseline, Median / Femoral Neck Scan: Z-Score, Result, Mean / Femoral Neck Scan: Z-Score, Result, Median / Femoral Neck Scan: Bone Mineral Density, Change From Baseline, LS Mean / Femoral Neck Scan: Bone Mineral Density, Change From Baseline, OCA - Placebo mean difference / Femoral Neck Scan: T-Score, Change From Baseline, LS Mean / Femoral Neck Scan: T-Score, Change From Baseline, OCA - Placebo mean difference / Femoral Neck Scan: Z-Score, Change From Baseline, LS Mean / Femoral Neck Scan: Z-Score, Change From Baseline, OCA - Placebo mean difference: orally once daily, DB Month 12, subjects with PBC; for Femoral Neck Scan: Bone Mineral Density, Change From Baseline, LS Mean / Femoral Neck Scan: Bone Mineral Density, Change From Baseline, OCA - Placebo mean difference / Femoral Neck Scan: T-Score, Change From Baseline, LS Mean / Femoral Neck Scan: T-Score, Change From Baseline, OCA - Placebo mean difference / Femoral Neck Scan: Z-Score, Change From Baseline, LS Mean / Femoral Neck Scan: Z-Score, Change From Baseline, OCA - Placebo mean difference: ANCOVA
Protocol: (§1) PBC patients are randomized to three groups: (a) placebo (PCB), (b) 10 mg OCA, or (c) 5 mg (month 0-6) titrating to 10 mg (month 7-12) OCA. Study medication is administered orally, once daily for 12 months. For patients under pretreatment ursodeoxycholic acid (UDCA) treatment, the pre-treatment dose of UDCA is continued throughout their treatment. Bone density is measured by DEXA scans. DEXA scans of the lumbar spine and femoral neck are conducted at Day 0 and Month 12. Additional measurement may be conducted after Month 12 (e.g., annually after Month 12) as necessary and appropriate. The timing of the DEXA scans is not critical, and may be conducted±2 weeks. […] Subjects with PBC±UDCA (if taking UDCA, patients were maintained on a stable dose) with ALP≧1.67×ULN or bilirubin<2×ULN were randomized to placebo (PBO), OCA 5 or 10 mg for 12 months. Subjects on 5 mg were titrated to 10 mg after 6 months (OCA Titration) based on clinical response and tolerability. Dual-emission X-ray absorptiometry (DEXA) scan was used to assess BMD in a subset of subjects prior to and following 12 months of OCA or placebo treatment. Changes from baseline at Month 12 were analyzed using an ANCOVA model with baseline values as a covariate. Osteopenia and osteoporosis were based on WHO thresholds: T score −1.0 to ≦−2.5 […].

[2] = DEXA scan of the lumbar spine (T-score, Z-score, BMD) in PBC subjects, 12 months OCA or placebo; type: in vivo, human; details: for Lumbar Spine Scan: Bone Mineral Density, Change From Baseline, Mean / Lumbar Spine Scan: Bone Mineral Density, Change From Baseline, Median / Lumbar Spine Scan: Bone Mineral Density, Result, Mean / Lumbar Spine Scan: Bone Mineral Density, Result, Median / Lumbar Spine Scan: T-Score, Change From Baseline, Mean / Lumbar Spine Scan: T-Score, Change From Baseline, Median / Lumbar Spine Scan: T-Score, Result, Mean / Lumbar Spine Scan: T-Score, Result, Median / Lumbar Spine Scan: Z-Score, Change From Baseline, Mean / Lumbar Spine Scan: Z-Score, Change From Baseline, Median / Lumbar Spine Scan: Z-Score, Result, Mean / Lumbar Spine Scan: Z-Score, Result, Median / Lumbar Spine Scan: Bone Mineral Density, Change From Baseline, LS Mean / Lumbar Spine Scan: Bone Mineral Density, Change From Baseline, OCA - Placebo mean difference / Lumbar Spine Scan: T-Score, Change From Baseline, LS Mean / Lumbar Spine Scan: T-Score, Change From Baseline, OCA - Placebo mean difference / Lumbar Spine Scan: Z-Score, Change From Baseline, LS Mean / Lumbar Spine Scan: Z-Score, Change From Baseline, OCA - Placebo mean difference: orally once daily, DB Month 12, subjects with PBC; for Lumbar Spine Scan: Bone Mineral Density, Change From Baseline, LS Mean / Lumbar Spine Scan: Bone Mineral Density, Change From Baseline, OCA - Placebo mean difference / Lumbar Spine Scan: T-Score, Change From Baseline, LS Mean / Lumbar Spine Scan: T-Score, Change From Baseline, OCA - Placebo mean difference / Lumbar Spine Scan: Z-Score, Change From Baseline, LS Mean / Lumbar Spine Scan: Z-Score, Change From Baseline, OCA - Placebo mean difference: ANCOVA
Protocol: as §1

[3] = Titration OCA (5 mg, titrated to 10 mg after 6 months)

## CC[C@H]1[C@@H](O)[C@@H]2[C@H](CC[C@]3(C)[C@@H]([C@H](C)CCC(=O)O)CC[C@@H]23)[C@@]2(C)CC[C@@H](O)C[C@@H]12 [OCA, 3α,7α-dihydroxy-6α-ethyl-5β-cholan-24-oic acid]
[1]; 10 mg OCA
  Femoral Neck Scan: Bone Mineral Density, Change From Baseline, Mean: −0.034 g/cm^2
  Femoral Neck Scan: Bone Mineral Density, Change From Baseline, Median: −0.018 g/cm^2
  Femoral Neck Scan: Bone Mineral Density, Result, Mean: 0.813 g/cm^2
  Femoral Neck Scan: Bone Mineral Density, Result, Median: 0.779 g/cm^2
  Femoral Neck Scan: T-Score, Change From Baseline, Mean: −0.11
  Femoral Neck Scan: T-Score, Change From Baseline, Median: −0.10
  Femoral Neck Scan: T-Score, Result, Mean: −1.06
  Femoral Neck Scan: T-Score, Result, Median: −1.05
  Femoral Neck Scan: Z-Score, Change From Baseline, Mean: −0.06
  Femoral Neck Scan: Z-Score, Change From Baseline, Median: 0.00
  Femoral Neck Scan: Z-Score, Result, Mean: −0.01
  Femoral Neck Scan: Z-Score, Result, Median: −0.10
  Femoral Neck Scan: Bone Mineral Density, Change From Baseline, LS Mean: −0.04 g/cm^2
  Femoral Neck Scan: Bone Mineral Density, Change From Baseline, OCA - Placebo mean difference: −0.02 g/cm^2
  Femoral Neck Scan: T-Score, Change From Baseline, LS Mean: −0.07
  Femoral Neck Scan: T-Score, Change From Baseline, OCA - Placebo mean difference: 0.26
  Femoral Neck Scan: Z-Score, Change From Baseline, LS Mean: −0.07
  Femoral Neck Scan: Z-Score, Change From Baseline, OCA - Placebo mean difference: 0.05
[1]; [3]
  Femoral Neck Scan: Bone Mineral Density, Change From Baseline, Mean: −0.003 g/cm^2
  Femoral Neck Scan: Bone Mineral Density, Change From Baseline, Median: −0.004 g/cm^2
  Femoral Neck Scan: Bone Mineral Density, Result, Mean: 0.809 g/cm^2
  Femoral Neck Scan: Bone Mineral Density, Result, Median: 0.822 g/cm^2
  Femoral Neck Scan: T-Score, Change From Baseline, Mean: −0.03
  Femoral Neck Scan: T-Score, Change From Baseline, Median: −0.05
  Femoral Neck Scan: T-Score, Result, Mean: −1.28
  Femoral Neck Scan: T-Score, Result, Median: −1.45
  Femoral Neck Scan: Z-Score, Change From Baseline, Mean: 0.01
  Femoral Neck Scan: Z-Score, Change From Baseline, Median: 0.00
  Femoral Neck Scan: Z-Score, Result, Mean: −0.23
  Femoral Neck Scan: Z-Score, Result, Median: −0.45
  Femoral Neck Scan: Bone Mineral Density, Change From Baseline, LS Mean: −0.01 g/cm^2
  Femoral Neck Scan: Bone Mineral Density, Change From Baseline, OCA - Placebo mean difference: 0.01 g/cm^2
  Femoral Neck Scan: T-Score, Change From Baseline, LS Mean: −0.06
  Femoral Neck Scan: T-Score, Change From Baseline, OCA - Placebo mean difference: 0.27
  Femoral Neck Scan: Z-Score, Change From Baseline, LS Mean: −0.01
  Femoral Neck Scan: Z-Score, Change From Baseline, OCA - Placebo mean difference: 0.10
[1]; both OCA groups, Baseline to Month 12, subjects with PBC, p<0.05
  decrease in femoral bone mineral density T-score versus placebo: smaller decrease
[2]; 10 mg OCA
  Lumbar Spine Scan: Bone Mineral Density, Change From Baseline, Mean: −0.012 g/cm^2
  Lumbar Spine Scan: Bone Mineral Density, Change From Baseline, Median: −0.013 g/cm^2
  Lumbar Spine Scan: Bone Mineral Density, Result, Mean: 1.003 g/cm^2
  Lumbar Spine Scan: Bone Mineral Density, Result, Median: 0.976 g/cm^2
  Lumbar Spine Scan: T-Score, Change From Baseline, Mean: −0.17
  Lumbar Spine Scan: T-Score, Change From Baseline, Median: −0.10
  Lumbar Spine Scan: T-Score, Result, Mean: −1.02
  Lumbar Spine Scan: T-Score, Result, Median: −1.20
  Lumbar Spine Scan: Z-Score, Change From Baseline, Mean: −0.03
  Lumbar Spine Scan: Z-Score, Change From Baseline, Median: 0.00
  Lumbar Spine Scan: Z-Score, Result, Mean: 0.01
  Lumbar Spine Scan: Z-Score, Result, Median: 0.00
  Lumbar Spine Scan: Bone Mineral Density, Change From Baseline, LS Mean: −0.01 g/cm^2
  Lumbar Spine Scan: Bone Mineral Density, Change From Baseline, OCA - Placebo mean difference: 0.00 g/cm^2
  Lumbar Spine Scan: T-Score, Change From Baseline, LS Mean: −0.09
  Lumbar Spine Scan: T-Score, Change From Baseline, OCA - Placebo mean difference: 0.16
  Lumbar Spine Scan: Z-Score, Change From Baseline, LS Mean: −0.03
  Lumbar Spine Scan: Z-Score, Change From Baseline, OCA - Placebo mean difference: −0.05
[2]; [3]
  Lumbar Spine Scan: Bone Mineral Density, Change From Baseline, Mean: −0.014 g/cm^2
  Lumbar Spine Scan: Bone Mineral Density, Change From Baseline, Median: −0.007 g/cm^2
  Lumbar Spine Scan: Bone Mineral Density, Result, Mean: 1.013 g/cm^2
  Lumbar Spine Scan: Bone Mineral Density, Result, Median: 0.994 g/cm^2
  Lumbar Spine Scan: T-Score, Change From Baseline, Mean: −0.06
  Lumbar Spine Scan: T-Score, Change From Baseline, Median: 0.00
  Lumbar Spine Scan: T-Score, Result, Mean: −1.10
  Lumbar Spine Scan: T-Score, Result, Median: −1.35
  Lumbar Spine Scan: Z-Score, Change From Baseline, Mean: 0.00
  Lumbar Spine Scan: Z-Score, Change From Baseline, Median: 0.00
  Lumbar Spine Scan: Z-Score, Result, Mean: 0.02
  Lumbar Spine Scan: Z-Score, Result, Median: −0.20
  Lumbar Spine Scan: Bone Mineral Density, Change From Baseline, LS Mean: −0.01 g/cm^2
  Lumbar Spine Scan: Bone Mineral Density, Change From Baseline, OCA - Placebo mean difference: −0.01 g/cm^2
  Lumbar Spine Scan: T-Score, Change From Baseline, LS Mean: −0.01
  Lumbar Spine Scan: T-Score, Change From Baseline, OCA - Placebo mean difference: 0.25
  Lumbar Spine Scan: Z-Score, Change From Baseline, LS Mean: 0.00
  Lumbar Spine Scan: Z-Score, Change From Baseline, OCA - Placebo mean difference: −0.01
[2]; both OCA groups, Baseline to Month 12, subjects with PBC
  Lumbar bone mineral density change, OCA groups versus placebo: No significant difference; also recorded: not significant
